From ChEMBL document CHEMBL5505988, “Thiadiazole-, selenadiazole- and triazole-fused anthraquinones as G-quadruplex targeting anticancer compounds” (Eur J Med Chem, 2024)

Assay: Downregulation of histone H3 protein expression in human K562 cells assessed as reduction in mean fluorescence channel value at 8 uM after 24 hrs by flow cytometry analysis (reference value: 1500)
Format: functional

Cl.Cl.NCCNc1c2c(c(NCCN)c3n[se]nc13)C(=O)c1ccccc1C2=O
Activity: 970
